Source: patent US20090068286A1, “METHOD OF TREATING CANCER BY ADMINISTRATION OF 5-SUBSTITUTED NUCLEOSIDES” (RESprotect, GmbH, priority 2007, published 2009)
Entries after “also recorded” stand apart in the source; their conditions may differ.

What was measured:
[1] = tested on: advanced pancreatic adenocarcinoma; assay: Pilot study GEM + CIS + BVDU in patients; format: in vivo, human
Description: Pilot study: 13 Patients (mean age 61, 69% males, 4 stage III, 9 stage IV) with advanced pancreatic adenocarcinoma were treated with i.v. 1.000 mg/m^2 GEM over 30 min on days 1 and 15 of a 28-day schedule. CIS was administered at 50 mg/m^2. BVDU treatment took place on the same day and for four days after chemotherapy in the recovery phase (each four 125 mg tablets per day, resulting in a total dose of 6.000 mg per treatment cycle). As control, data were used of patients of a preceding study which were treated with GEM and CIS, but not with BVDU. With the intention to obtain a control group with a similar proportion of stage IV and stage III diseases as the 13 patients of the pilot study, […] (6 stage III, 15 stage IV) of 96 patients were selected from the Heinemann study by random generator.
Evaluation: Efficacy was measured by overall survival, objective tumor response rate (ORR, according to WHO criteria in the pilot study and RECIST criteria in the dose finding study) and time to progression (TTP) from the first administration onwards. Serum CA19-9 levels were measured at the start and end of each treatment cycle. Safety was evaluated according to NCI-CTC scale.
Evaluation of Progression: Patients were evaluated every five weeks.
Statistical Methods: Survival curves were generated using the Kaplan-Meier method; survival distributions were compared by the log-rank test (Cox-Mantel), and median survival by the Box and Whisker plot.

[2] = tested on: AH13r tumor cells; assay: Hoechst 33258/propidium iodide (Hopi) double coloration for apoptosis; format: cell-based, rat; conditions: co-treatment of cytostatic with BVDU
Excerpt: The indication that the reduction in cell number is based on apoptosis, was detected by means of Hoechst 33258/propidium iodide (Hopi) double coloration.

[3] = tested on: JUN-D; assay: Western Blot analysis of survival pathways: JUN-D; format: cell-based
Description: Different “survival pathways” were tested by means of Western Blot analysis. The analyses were implemented according to standard methods, as is described in Sambrook et al., 2001, Molecular Cloning (3rd ed.). Antibody dilutions: P-STAT3 (cell signaling) 1: 500, JUN-D (Santa Cruz, Calif.) 1: 1,000.
The densitometrically determined content of oncogene proteins JUN-D and STAT3 was reduced by a quarter or two thirds after DOX treatment in the recovery phase (r=recovery phase). In the “recovery” only BVDU is given, no cytostatic.

[4] = tested on: uridine phosphorylase (UPase); assay: UPase expression in human pancreas carcinoma cell lines; format: cell-based
Excerpt: BVDU downregulates uridine phosphorylase (UPase) expression in BxPC-3 and AsPC-1 human pancreas carcinoma cell lines. […] In squamous cell carcinoma, high staining of UPase in primary tumors was frequently associated with the presence of lymph node metastases and lower overall survival.

[5] = 13 patients, BVDU co-treatment with GEM + CIS
[6] = BVDU co-treatment with GEM + CIS

## O=c1[nH]c(=O)n([C@H]2C[C@H](O)[C@@H](CO)O2)cc1/C=C/Br [BVDU, (E)-5-(2-bromovinyl)-2′-deoxyuridine]
[1]; [5]
  Median survival: 447 days
  Median time to progression (TTP): 280 days
[1]; 13 patients, WHO criteria, BVDU co-treatment with GEM + CIS
  Remissions / response rate: 33%
[1]; [6]
  Patients who live more than two years: 23%
  Patients who lived or have lived longer than one year: 77%
[1]; BVDU-treatment group
  Number of patients living longer than one year after first treatment: Ten of 13
  Number of patients living more than two years: three
[2]
  Apoptosis (HOPI double coloration): promotes apoptosis
[3]; BVDU given in the “recovery” after MMC
  Inhibition of MMC induced JUN-D overexpression: complete inhibition
[3]; after DOX treatment, recovery phase: only BVDU given, no cytostatic
  Reduction of JUN-D protein content (densitometry): approximately one quarter; also recorded: a quarter
[4]; AsPC-1 human pancreas carcinoma cell line
  UPase expression: downregulates
[4]; BxPC-3 human pancreas carcinoma cell line
  UPase expression: downregulates
